Results published in patent US9199917B2, “N-substituted benzenepropanamide or benzenepropenamide derivatives for use in the treatment of pain and inflammation” (Novaremed Limited, priority 2008, dated 2015).

System: Balb/c mice
Test: Hot-Plate Test of Balb/c mice vs. imipramine, i.p. & p.o. (Example 2)
Format: in vivo
Conditions: 5 mg/kg i.p. at t=0, group Average
Experimental: 14-week old male Balb/c mice (non-naive) were divided into four groups of seven mice per group and treated at t=0 as detailed in Table 3 below:
Compound 18 stock comprises 9.4 mg Compound 18, 0.2 mL DMSO and 0.8 mL saline.
As in Example 1 above, the response latencies of the mice in the respective groups were tested using a hot-plate at t=−60 mins., 0 mins., 60 mins., 120 mins., 180 mins., 240 mins., 300 mins. and 360 mins.

`CN(C)CCCN1c2ccccc2CCc2ccccc21` [Imipramine, imipramine] showed a hot-plate response latency (tested at t=0 mins.) of 13.7 s, a hot-plate response latency (tested at t=60 mins.) of 14.9 s and a hot-plate response latency (tested at t=120 mins.) of 14.6 s. The hot-plate response latency (tested at t=240 mins.) was 22.9 s and the hot-plate response latency (tested at t=300 mins.) was 23.1 s.
